Cytotoxicity data for 99 compounds are collected here from ChEMBL document CHEMBL3507680, “University of Dundee, Gates Library screen for HepG2 cell viability”.

The nature of this data set: Human HepG2 cell viability assay in 384 well format. Format: toxicity, cell-based. Also on record: dose 125 nL, time 70.5 hour; concentration not given beside the values. Conditions: HepG2 cells, read-out: Inhibition.
For the compound `Cc1c(Cl)c(C(=O)N2CC[C@H](N3CCOCC3)[C@H](CCCO)C2)nn1C`, the cytotoxicity at 70.5 h was found to be 3.03%.

Turning to `CN1CCCC2(CC1)CCN(C(=O)CCc1ccccc1O)CC2`, the cytotoxicity at 70.5 h came to 6.16%.

Regarding `Cc1cnn(C2(C(=O)O)CCN(Cc3oc4ccccc4c3C)CC2)c1`, the cytotoxicity at 70.5 h was -8.33%.

As for `CC(C)N1CC(C(=O)NCCc2csc(-c3ccncc3)n2)CC1=O` (centres undefined), the cytotoxicity at 70.5 h came to 34.8%.

Consider `CNC(=O)CC1CCN(Cc2nc(-c3ccc(SC)cc3)oc2C)CC1`, for which the cytotoxicity at 70.5 h is -6.83%.

For the compound `CN(C)C(=O)CN1C[C@@H]2CC[C@H](C1)N(Cc1cc(F)ccc1F)C2`, the cytotoxicity at 70.5 h turned out to be 7.45%.

Turning to `CSc1nccc(N2CCN(C)C3(CCNC(=O)CC3)C2)n1` (centres undefined), the cytotoxicity at 70.5 h is -5.4%.

As for `CCCn1nc(C)c(CNC(=O)C2COc3c(cccc3OC)C2)c1C` (centres undefined), the cytotoxicity at 70.5 h is -10.5%.

`COc1cccc([C@@H]2CCN(Cc3ccc4ccccc4n3)C[C@H]2O)c1`: the cytotoxicity at 70.5 h was -8.06%.

`Cc1nccn1CCC1CCCCN1C(=O)c1ccc2[nH]nnc2c1` (centres undefined): the cytotoxicity at 70.5 h was -1.82%.

For the compound `COCCNS(=O)(=O)c1cccc2c1CN(C(=O)c1ccccc1)CC2`, the cytotoxicity at 70.5 h came to 14.6%.

For the compound `CC(C)CN1CCN(Cc2nc3ccccc3[nH]2)[C@H]2CS(=O)(=O)C[C@H]21`, the cytotoxicity at 70.5 h is -11.1%.

In the case of `CC(c1ccccc1)n1c(SCC(=O)O)nnc1-c1ccccc1Cl` (centres undefined), the cytotoxicity at 70.5 h is -4%.

For the compound `CC(C)C(=O)NCC(=O)N(C)C1CCCN(C2Cc3ccccc3C2)C1` (centres undefined), the cytotoxicity at 70.5 h was -10.4%.

For the compound `CCS(=O)(=O)N1CCC(c2nnc(CN3CCCC3)n2C2CC2)CC1`, the cytotoxicity at 70.5 h is -11.4%.

As to `Cc1ccccc1C(=O)N1CCOC2(CNCCOC2)C1` (centres undefined), the cytotoxicity at 70.5 h is -4.46%.

Consider `O=C(CCCc1ccc(F)cc1)N1C[C@@H](CN2CCOCC2)[C@@H](CO)C1`, for which the cytotoxicity at 70.5 h is -2.56%.

`Cc1cc(-c2nn(C)c(Cl)c2CN2CCOCC(O)C2)no1` (centres undefined): the cytotoxicity at 70.5 h was -11.6%.

With `CN(CC1(O)CCCN(CCC2CCCCC2)C1=O)C1CCOCC1` (centres undefined), the cytotoxicity at 70.5 h was -5.64%.

As for `COc1cccn(CC(=O)N(C)Cc2ccoc2)c1=O`, the cytotoxicity at 70.5 h came to 1.59%.

With `CC(CN1CCC2(CC1)c1nc[nH]c1CCN2S(C)(=O)=O)C(F)(F)F` (centres undefined), the cytotoxicity at 70.5 h is -1.86%.

`CCOCCOc1ccccc1C(=O)N1CCCC(c2ncc[nH]2)C1` (centres undefined): the cytotoxicity at 70.5 h is -5%.

As to `O=C(c1cccnc1)N1C[C@@H]2CC[C@H](C1)N(Cc1cccc(Cl)c1F)C2`, the cytotoxicity at 70.5 h is -1.34%.

In the case of `COCCN(C)CCN1CC2(CCN(C3CCCOC3)CC2)OC1=O` (centres undefined), the cytotoxicity at 70.5 h was found to be 3.4%.

Turning to `Cc1ccc2c(c1)c(CNC(=O)C1CCN(C(C)C)CC1)nn2C`, the cytotoxicity at 70.5 h is -14.4%.

Regarding `CN1CC(c2ccccc2)CC12CCN(C(=O)c1cncc(Cl)c1)CC2` (centres undefined), the cytotoxicity at 70.5 h was -8.59%.

`CCn1cc(CN2CCC(c3nnc(CN(C)C)n3CC)CC2)cn1`: the cytotoxicity at 70.5 h turned out to be 10.9%.

As to `COCCN1CCCC(c2nc3c([nH]2)CC(C)(C)CNC3=O)C1` (centres undefined), the cytotoxicity at 70.5 h is -3%.

In the case of `Cc1nonc1CN(C)CC1(O)CCCN(CCC2CCCCC2)C1=O` (centres undefined), the cytotoxicity at 70.5 h amounted to 2.77%.

Regarding `CN(C)C(=O)N1CCN(C(=O)CCc2ccccc2)[C@H]2CS(=O)(=O)C[C@H]21`, the cytotoxicity at 70.5 h is -5.59%.

For `CSCCNC(=O)c1ccc(OC2CCN(CC(C)(C)C)CC2)c(Cl)c1`, the cytotoxicity at 70.5 h was -7.8%.

In the case of `Cc1cc(C)nc(CCNC(=O)C(c2ccc(F)cc2)N(C)C)n1` (centres undefined), the cytotoxicity at 70.5 h came to 30.5%.

`CN(C)C(=O)CCCNC(=O)C(c1cccc(F)c1)N(C)C` (centres undefined): the cytotoxicity at 70.5 h came to 3.05%.

Regarding `Cc1cc(-c2nn(C)c(Cl)c2CN2Cc3ccccc3C(O)C2)no1` (centres undefined), the cytotoxicity at 70.5 h was -11.3%.

On to `COc1cccc2c1OCC(C(=O)N(C)CCCc1cnn(C)c1)C2` (centres undefined), for which the cytotoxicity at 70.5 h is -1.77%.

Turning to `O=C(c1cccnc1)N1C[C@@H]2CC[C@H](C1)N(Cc1cc(F)ccc1F)C2`, the cytotoxicity at 70.5 h was -5.88%.

Take `CC(C)c1cc(N2CCN(c3ccc(O)cc3)CC2)n2nccc2n1`: the cytotoxicity at 70.5 h is -11.5%.

For `CCNC(=O)CCN1CCC(c2cc(N3CCOCC3)nc(C)n2)CC1`, the cytotoxicity at 70.5 h is -7.37%.

As for `COc1cccc2c1OCC(CNC(=O)CNC(N)=O)C2` (centres undefined), the cytotoxicity at 70.5 h was -4.9%.

`COc1nc(C)c(C(=O)N(C)Cc2nc(-c3ccccn3)no2)s1`: the cytotoxicity at 70.5 h was determined as 5.05%.

In the case of `O=C(c1ccccn1)N1CCCC(c2nccn2CC2CCC2)C1` (centres undefined), the cytotoxicity at 70.5 h was determined as 18.9%.

For the compound `CCCC(C)CN1CCC(n2cc(CCCO)nn2)CC1` (centres undefined), the cytotoxicity at 70.5 h was -4.4%.

`CCOCCn1c(=O)[nH]c2cc(C(=O)N(C)CCc3cn[nH]c3)ccc21`: the cytotoxicity at 70.5 h worked out at 18.1%.

With `CC(C)n1ccnc1C1CCN(C(=O)C2COc3ccccc3O2)CC1` (centres undefined), the cytotoxicity at 70.5 h was -9.98%.

Consider `Cc1nnsc1C(=O)N1CCC2(CC1)c1nc[nH]c1CCN2CC(C)C`, for which the cytotoxicity at 70.5 h was -2.79%.

On to `c1ccc(OCC2CC2)c(CNC2CCc3ncnn3C2)c1` (centres undefined), for which the cytotoxicity at 70.5 h is -7.19%.

In the case of `c1cncc(COc2ccccc2CNC2CCc3ncnn3C2)c1` (centres undefined), the cytotoxicity at 70.5 h is -5.98%.

In the case of `COc1cc(C)nc(N2CCN(C(=O)CN(C)C(C)C)CC2)n1`, the cytotoxicity at 70.5 h was determined as 29%.

In the case of `NC(=O)c1cccc(CN2CCc3c(ncn3C3CC3)C2)c1`, the cytotoxicity at 70.5 h is 23.7%.

On to `CN(Cc1noc(C2CC2)n1)C1CCN(Cc2cccc(F)c2F)C1` (centres undefined), for which the cytotoxicity at 70.5 h turned out to be 15.9%.

On to `CN(Cc1cccnc1)C1CCCN(Cc2noc(C3CC3)n2)C1` (centres undefined), for which the cytotoxicity at 70.5 h is 24.6%.

With `CCCc1cc(C(=O)NCCN2CCCS2(=O)=O)[nH]n1`, the cytotoxicity at 70.5 h is -7.48%.

For `Cc1ccc(-c2cc(C(=O)NCCN3CCCS3(=O)=O)[nH]n2)o1`, the cytotoxicity at 70.5 h was -14.9%.

For the compound `OCCN1CCC(CNCc2ccccc2OC(F)(F)F)CC1`, the cytotoxicity at 70.5 h was -7.57%.

Regarding `COc1cc(C)nc(N2CCN(C(=O)CSC)CC2)n1`, the cytotoxicity at 70.5 h is -11.8%.

With `O=C1C(NCc2nnc3n2CCCC3)CCN1c1ccccc1Cl` (centres undefined), the cytotoxicity at 70.5 h was determined as 9.28%.

With `O=C(NCc1nn(-c2ccccc2)c2c1CCC2)N1CCCC(O)C1` (centres undefined), the cytotoxicity at 70.5 h is -12.1%.

Take `O=C(NCc1nn(-c2ccccc2)c2c1CCC2)NC1CCC(O)CC1` (centres undefined): the cytotoxicity at 70.5 h is -8.01%.

For the compound `NC(=O)NCCC(=O)NCc1nn(-c2ccccc2)c2c1CCC2`, the cytotoxicity at 70.5 h is -16.4%.

In the case of `Cc1noc(C)c1CNC(=O)N1CCC(Cc2cnn(C)c2)C1` (centres undefined), the cytotoxicity at 70.5 h was -3.98%.

Take `CC(O)CN1CCC(CNCc2cccc(OC(F)(F)F)c2)CC1` (centres undefined): the cytotoxicity at 70.5 h came to 5.77%.

Turning to `CCOc1ccccc1CNCC1CCN(CC(C)O)CC1` (centres undefined), the cytotoxicity at 70.5 h is -1.15%.

As to `O=C(NCc1cc[nH]n1)NCC(c1ccccc1)N1CCOCC1` (centres undefined), the cytotoxicity at 70.5 h is 8.77%.

As for `Cc1cnn(CC2CCCCN2Cc2cc(C)no2)c1` (centres undefined), the cytotoxicity at 70.5 h was -8.3%.

For the compound `CCc1nccn1C1CCCN(C(=O)CCOCC(F)(F)F)C1` (centres undefined), the cytotoxicity at 70.5 h was -14%.

For `CCN(CC)CC(=O)N1CCN(c2nc(C)cc(OC)n2)CC1`, the cytotoxicity at 70.5 h is -0.607%.

Take `Cc1cnn(CC2CCCN2Cc2cc(C)on2)c1` (centres undefined): the cytotoxicity at 70.5 h was -4.61%.

As to `Cc1cc(C)n(CC2CCCN2CCCS(C)(=O)=O)n1` (centres undefined), the cytotoxicity at 70.5 h is -7.95%.

Regarding `CCn1ccnc1CN1CCCN(C(=O)c2scnc2C)CC1`, the cytotoxicity at 70.5 h is -11.5%.

Regarding `COc1ccc(NC(=O)NC(C)Cc2ccco2)cn1` (centres undefined), the cytotoxicity at 70.5 h is -11.4%.

As for `CC(Cc1ccco1)NC(=O)Nc1ccc(N(C)C)nc1` (centres undefined), the cytotoxicity at 70.5 h is -7.91%.

As for `CN1CCN(c2cc(CNC(=O)c3ccc(Cl)o3)ccn2)CC1`, the cytotoxicity at 70.5 h is -3.02%.

Take `NC(=O)Cn1cc(NC(=O)N2CCN(c3ccc(F)cc3)CC2)cn1`: the cytotoxicity at 70.5 h was 8.67%.

`NC(=O)Cn1cc(NC(=O)N2CCCCCC2)cn1`: the cytotoxicity at 70.5 h is -11.1%.

For `N#Cc1ccsc1NC(=O)CN1CCOC(Cn2cccn2)C1` (centres undefined), the cytotoxicity at 70.5 h was 11%.

For `Cc1cnn(CC2CN(CC(=O)Nc3cc(C)no3)CCO2)c1` (centres undefined), the cytotoxicity at 70.5 h was -9.53%.

Take `Cc1nc2cc(=O)[nH]n2c(C)c1CC(=O)NCc1ccoc1`: the cytotoxicity at 70.5 h is -1.36%.

Turning to `CCc1ccsc1C(=O)N1CCCN(Cc2nccn2CC)CC1`, the cytotoxicity at 70.5 h came out at 5.97%.

Take `Cc1n[nH]c(C2CN(C(=O)CCc3cscn3)CCO2)n1` (centres undefined): the cytotoxicity at 70.5 h is -1.63%.

`CC(NS(C)(=O)=O)C(=O)N1CCCN(Cc2cscn2)CC1` (centres undefined): the cytotoxicity at 70.5 h is -1.86%.

Consider `Cc1nc(C)n(CC2CCCN2CCc2ccncc2)n1` (centres undefined), for which the cytotoxicity at 70.5 h came out at 18.1%.

Consider `CC(OCC1CC1)C(=O)N1CCCN(Cc2cscn2)CC1` (centres undefined), for which the cytotoxicity at 70.5 h turned out to be 1.88%.

For `CNc1cc(N2CCCC2CNCc2cnc(C)s2)ncn1` (centres undefined), the cytotoxicity at 70.5 h was 2.89%.

Regarding `CNc1cc(N2CCCC2CNCc2cscn2)ncn1` (centres undefined), the cytotoxicity at 70.5 h worked out at 1.05%.

Consider `CCc1nnsc1C(=O)N1CCCC(n2nc(C)nc2C)C1` (centres undefined), for which the cytotoxicity at 70.5 h was -3.17%.

Turning to `Cc1ncc(C(=O)N2CCCC(n3nc(C)nc3C)C2)c(C(C)C)n1` (centres undefined), the cytotoxicity at 70.5 h was -4.64%.

As for `CCc1ncncc1C(=O)N1CCCC(n2nc(C)nc2C)C1` (centres undefined), the cytotoxicity at 70.5 h is -1.23%.

Regarding `Cc1cc(C)n(CC2CCCN2CCc2ccccn2)n1` (centres undefined), the cytotoxicity at 70.5 h turned out to be 1.45%.

For the compound `Cc1ccc(C)n1C(C)C(=O)N1CCCN(Cc2cscn2)CC1` (centres undefined), the cytotoxicity at 70.5 h is -0.61%.

Consider `Cc1cnc(CN2CCOC(Cn3nc(C)cc3C)C2)cn1` (centres undefined), for which the cytotoxicity at 70.5 h came to 13.7%.

In the case of `Cc1nc(C2CCCN2CC(=O)NCCOc2ccc(F)cc2)no1` (centres undefined), the cytotoxicity at 70.5 h came to 47.6%.

As to `O=C(NCc1ccncc1)Nc1cc(C(F)(F)F)c[nH]c1=O`, the cytotoxicity at 70.5 h was -2.18%.

Regarding `Cc1cc(C)c(CNC(=O)NCC2COCCO2)c(=O)[nH]1` (centres undefined), the cytotoxicity at 70.5 h is -4.78%.

Turning to `Cn1cc(CCNCc2cc(Cl)c3c(c2)OCCO3)cn1`, the cytotoxicity at 70.5 h is -2.02%.

Consider `Cc1cc(C)n(CC2CN(Cc3nnc(C)o3)CCO2)n1` (centres undefined), for which the cytotoxicity at 70.5 h is -3.59%.

Take `CCc1nnc2n1CCN(C(=O)c1cc(Cl)c[nH]1)C2`: the cytotoxicity at 70.5 h was -1.1%.

With `O=C(c1ccccc1N1CCOCC1)N1CCCC(n2ccnc2)C1` (centres undefined), the cytotoxicity at 70.5 h is -6.72%.

For the compound `Cc1ccc(NC2CCN(C(=O)c3ccc(C)o3)CC2)nn1`, the cytotoxicity at 70.5 h was -0.446%.

With `Cc1ccc(NC2CCN(C(=O)Cc3c(C)noc3C)CC2)nn1`, the cytotoxicity at 70.5 h is -2.99%.
